What was measured:
HepG2 = experiment: Antiproliferative activity against human HepG2 cells assessed as reduction in cell viability measured after 72 hrs by MTT assay; format: functional, cell-based; conditions: HepG2, 72 h
HeLa = experiment: Antiproliferative activity against human HeLa cells assessed as reduction in cell viability measured after 72 hrs by MTT assay; format: functional, cell-based
MCF7 = experiment: Antiproliferative activity against human MCF7 cells assessed as reduction in cell viability measured after 72 hrs by MTT assay; format: functional, cell-based; conditions: MCF7, 72 h
MGC-803 = experiment: Antiproliferative activity against human MGC-803 cells assessed as reduction in cell viability measured after 72 hrs by MTT assay; format: functional, cell-based; conditions: MGC-803, 72 h
U-937 = experiment: Antiproliferative activity against human U-937 cells assessed as reduction in cell viability measured after 72 hrs by MTT assay; format: functional, cell-based; conditions: U-937, 72 h
A549 = experiment: Antiproliferative activity against human A549 cells assessed as reduction in cell viability measured after 72 hrs by MTT assay; format: functional, cell-based; conditions: A549, 72 h
[1] = Kinetic solubility of the compound at pH 2 by nephelometry; format: physicochemical; conditions: buffer, read-out: Kinetic_solubility
[2] = Kinetic solubility of the compound at pH 6.5 by nephelometry; format: physicochemical; conditions: buffer, read-out: Kinetic_solubility
[3] = Metabolic stability in human liver microsomes assessed as degradation half life; format: ADME, Microsome; conditions: liver microsomes
[4] = Intrinsic clearance in human liver microsome; format: ADME, microsomes; conditions: liver microsomes, read-out: CLH

`Cc1coc2c1C(=O)C(=O)c1cc(C(C)C)ccc1-2` gave an IC50 (HepG2) of 3270 nM, an IC50 (HeLa) of 4220 nM and an IC50 (MCF7) of 3570 nM. For the same molecule, the IC50 (MGC-803) was > 5000 nM, the IC50 (U-937) was 2200 nM and the IC50 (A549) was 1500 nM.

With `Cc1coc2c1C(=O)C(=O)c1cc(O)ccc1-2` the IC50 (HepG2) was > 5000 nM, the IC50 (HeLa) was > 5000 nM and the IC50 (MCF7) was > 5000 nM. For the same molecule, the IC50 (MGC-803) was > 5000 nM, the IC50 (U-937) was > 5000 nM and the IC50 (A549) was > 5000 nM.

`Cc1cc2c(o1)-c1ccc(C(C)C)cc1C(=O)C2=O` showed an IC50 (HepG2) of 2410 nM, an IC50 (HeLa) of 2160 nM and an IC50 (MCF7) of 2420 nM. For the same molecule, the IC50 (MGC-803) was 1970 nM, the IC50 (U-937) was 1660 nM and the IC50 (A549) was 2510 nM.

For `COc1ccc2c(c1)C(=O)C(=O)c1cc(C)oc1-2`, the IC50 (HepG2) was 3480 nM, the IC50 (HeLa) was 1380 nM and the IC50 (MCF7) was > 5000 nM. For the same molecule, the IC50 (MGC-803) was > 5000 nM, the IC50 (U-937) was 3400 nM and the IC50 (A549) was 750 nM.

For `COc1ccc2c(c1)C(=O)C(=O)c1c(C)coc1-2`, the IC50 (HepG2) was > 5000 nM, the IC50 (HeLa) was 2820 nM and the IC50 (MCF7) was > 5000 nM. For the same molecule, the IC50 (MGC-803) was 3950 nM, the IC50 (U-937) was 3670 nM and the IC50 (A549) was 940 nM.

In the case of `Cc1cc2c(o1)-c1ccc(O)cc1C(=O)C2=O`, the IC50 (HepG2) is reported as 4010 nM, the IC50 (HeLa) is reported as 2280 nM and the IC50 (MCF7) is reported as > 5000 nM. For the same molecule, the IC50 (MGC-803) was 2920 nM, the IC50 (U-937) was 3540 nM and the IC50 (A549) was 1780 nM.

For `COc1cccc2c1-c1oc(C)cc1C(=O)C2=O`, the IC50 (HepG2) was 4750 nM, the IC50 (HeLa) was 2100 nM and the IC50 (MCF7) was > 5000 nM. For the same molecule, the IC50 (MGC-803) was > 5000 nM, the IC50 (U-937) was 3260 nM and the IC50 (A549) was 2740 nM.

For `Cc1coc2c1C(=O)C(=O)c1c-2ccc2c1CCCC2(C)C` [TANSHINONE IIA], the IC50 (HepG2) was 4910 nM, the IC50 (HeLa) was 3470 nM and the IC50 (MCF7) was > 5000 nM. The IC50 (MGC-803) was > 5000 nM, the IC50 (U-937) was > 5000 nM and the IC50 (A549) was 2200 nM. The solubility kinetic [1] was < 5 µg/mL, the solubility kinetic [2] was < 5 µg/mL and the half-life [3] was 10 min. For the same molecule, the microsomal CLint [4] was 45 µL/min/mg.

With `COc1cccc2c1-c1occ(C)c1C(=O)C2=O` the IC50 (HepG2) was 3780 nM, the IC50 (HeLa) was 2330 nM and the IC50 (MCF7) was > 5000 nM. For the same molecule, the IC50 (MGC-803) was 3910 nM, the IC50 (U-937) was > 5000 nM and the IC50 (A549) was 430 nM.

Molecule `Cc1coc2c1C(=O)C(=O)c1cc(Cl)ccc1-2` has an IC50 (HepG2) of 1290 nM, an IC50 (HeLa) of 1550 nM and an IC50 (MCF7) of 4450 nM. It also gave an IC50 (MGC-803) of 2280 nM, an IC50 (U-937) of 2530 nM and an IC50 (A549) of 1780 nM.

In the case of `Cc1cc2c(o1)-c1ccccc1C(=O)C2=O`, the IC50 (HepG2) is reported as 2770 nM, the IC50 (HeLa) is reported as 1510 nM and the IC50 (MCF7) is reported as 1290 nM. For the same molecule, the IC50 (MGC-803) was 3540 nM, the IC50 (U-937) was 1580 nM and the IC50 (A549) was 2990 nM.

For `Cc1cc2c(o1)-c1c(O)cccc1C(=O)C2=O`, the IC50 (HepG2) was > 5000 nM, the IC50 (HeLa) was > 5000 nM and the IC50 (MCF7) was > 5000 nM. For the same molecule, the IC50 (MGC-803) was > 5000 nM, the IC50 (U-937) was > 5000 nM and the IC50 (A549) was > 5000 nM.

In the case of `Cc1coc2c1C(=O)C(=O)c1cccc(O)c1-2`, the IC50 (HepG2) is reported as > 5000 nM, the IC50 (HeLa) is reported as > 5000 nM and the IC50 (MCF7) is reported as > 5000 nM. The IC50 (MGC-803) was > 5000 nM, the IC50 (U-937) was > 5000 nM and the IC50 (A549) was > 5000 nM.

With `Cc1cc2c(o1)-c1ccc3c(c1C(=O)C2=O)CCCC3(C)C` the IC50 (HepG2) was 1220 nM, the IC50 (HeLa) was 1170 nM and the IC50 (MCF7) was > 5000 nM. It also gave an IC50 (MGC-803) of 2800 nM, an IC50 (U-937) of 2690 nM and an IC50 (A549) of 200 nM.

With `Cc1coc2c1C(=O)C(=O)c1ccccc1-2` the IC50 (HepG2) was 2060 nM, the IC50 (HeLa) was 950 nM and the IC50 (MCF7) was 1580 nM. For the same molecule, the IC50 (MGC-803) was 1920 nM, the IC50 (U-937) was 1190 nM and the IC50 (A549) was 850 nM.

Reference: ChEMBL document CHEMBL4842345, “Design, synthesis and biological evaluation of tanshinone IIA-based analogues: Potent inhibitors of microtubule formation and angiogenesis” (Eur J Med Chem, 2021)
